What was measured:
[1] = tested on: lung cancer (SK-MES-1) cells; test: Antiproliferative assay (MTT reduction, 3 days); assay type: cell-based, human; settings: >100 µM considered inactive, read-out: IC50 ± SD, SK-MES-1
Protocol: (§1) The antiproliferative activity towards the following human cell lines was determined: normal lung fibroblasts (MRC-5), gastric epithelial adenocarcinoma (AGS), lung cancer (SK-MES-1) and bladder carcinoma (J82) cells.
(§2) All human cell lines used in this work were purchased from the American Type Culture Collection (ATCC, Manasas, VA, USA). […] All media were supplemented with 10% heat-inactivated FBS, 100 IU∙mL^−1 penicillin and 100 µg∙mL^−1 streptomycin. Cells were grown in a humidified incubator with 5% CO2 in air at 37 °C. For the antiproliferative assay, cells were plated at a density of 5 × 10^4 cells∙mL^−1. Cells were seeded in 96-well plates (100 µL∙well^−1). One day after seeding, cells were treated with medium containing the compounds at concentrations ranging from 0 up to 100 µM during 3 days. The compounds were dissolved in DMSO (1% final concentration) and complete medium. Untreated cells (medium containing 1% DMSO) were used as 100% viability controls. […] Each concentration was tested in sextuplicate and experiments were repeated 2 times. Cell viability was determined by means of the MTT reduction assay at the end of the incubation with the products. […] The software used was OriginPro 8.1 [30].

[2] = tested on: normal lung fibroblasts (MRC-5); test: Antiproliferative assay (MTT reduction, 3 days); assay type: cell-based, human; settings: MRC-5 normal fibroblasts, >100 µM considered inactive, read-out: IC50 ± SD, MRC-5
Protocol: as §1, §2

[3] = tested on: bladder carcinoma (J82) cells; test: Antiproliferative assay (MTT reduction, 3 days); assay type: cell-based, human; settings: J82 cells, 3 days, MTT; >100 µM considered inactive; read-out: IC50 ± SD, J82
Protocol: as §1, with “cells. […] When comparing the pairs 3–4, 5–6 and 7–8 differing in one CH2 unit in the linker, the activity decreased with linker length.” for “cells.”
(§3) All human cell lines used in this work were purchased from the American Type Culture Collection (ATCC, Manasas, VA, USA). Normal lung MRC-5 fibroblasts (CCL-171), SK-MES-1 lung cancer cells (HTB-58) and J82 bladder carcinoma cells (HTB-1) were grown as monolayers in minimum essential Eagle medium (MEM) with Earles’s salts, 2 mM L-glutamine and 1.5 g∙L^−1 sodium bicarbonate. Gastric adenocarcinoma AGS cells (CRL-1739) were grown as monolayers in Ham F-12 medium containing 1 mM L-glutamine and 1.5 g∙L^−1 sodium bicarbonate. All media were supplemented with 10% heat-inactivated FBS, 100 IU∙mL^−1 penicillin and 100 µg∙mL^−1 streptomycin. Cells were grown in a humidified incubator with 5% CO2 in air at 37 °C. For the antiproliferative assay, cells were plated at a density of 5 × 10^4 cells∙mL^−1. Cells were seeded in 96-well plates (100 µL∙well^−1). One day after seeding, cells were treated with medium containing the compounds at concentrations ranging from 0 up to 100 µM during 3 days. The compounds were dissolved in DMSO (1% final concentration) and complete medium. Untreated cells (medium containing 1% DMSO) were used as 100% viability controls. […] Each concentration was tested in sextuplicate and experiments were repeated 2 times. Cell viability was determined by means of the MTT reduction assay at the end of the incubation with the products. The results were transformed to percentage of controls and the IC50 value was obtained adjusting the dose-response curve to a sigmoidal model. The software used was OriginPro 8.1 [30].

[4] = tested on: gastric epithelial adenocarcinoma (AGS) cells; test: Antiproliferative assay (MTT reduction, 3 days); assay type: cell-based, human; settings: >100 µM considered inactive, read-out: IC50 ± SD, AGS
Protocol: as §1, with “cells. […] When comparing the pairs 3–4, 5–6 and 7–8 differing in one CH2 unit in the linker, the activity decreased with linker length.” for “cells.”
as §3

[5] = tested on: C. albicans ATCC 10231; test: Antifungal broth microdilution (CLSI M27-A3), growth inhibition; assay type: cell-based, Candida albicans; settings: for MIC50 (minimum concentration to inhibit 50% of fungal growth), C. albicans: C. albicans ATCC 10231
In short: (§4)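 Yeast inocula (1–5 × 10^3 CFU/mL) were tested by CLSI M27-A3 broth microdilution in RPMI-1640 at 250–3.9 μg∙mL^−1 (DMSO ≤1%) for 48 h at 30 °C in the dark. Growth was read at OD405, and % inhibition was calculated against growth and sterility controls in triplicate. MIC100 is total inhibition; MIC50 is 50% inhibition.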

[6] = tested on: C. neoformans ATCC 32264; test: as above; assay type: cell-based, Cryptococcus neoformans; settings: for MIC50 (minimum concentration to inhibit 50% of fungal growth), C. neoformans: C. neoformans ATCC 32264
In short: as §4

Structure (SMILES) | IC50 [1] [µM] | IC50 [2] [µM] | IC50 [3] [µM] | IC50 [4] [µM] | Inhibition percentage against C. albicans ATCC 10231 ([5]; 3.9 μg∙mL^−1, 48 h) [%] | Inhibition percentage against C. albicans ATCC 10231 ([5]; 7.8 μg∙mL^−1, 48 h) [%] | Inhibition percentage against C. albicans ATCC 10231 ([5]; 15.6 μg∙mL^−1, 48 h) [%] | Inhibition percentage against C. albicans ATCC 10231 ([5]; 62.5 μg∙mL^−1, 48 h) [%] | Inhibition percentage against C. albicans ATCC 10231 ([5]; 125 μg∙mL^−1, 48 h) [%] | Inhibition percentage against C. albicans ATCC 10231 ([5]; 250 μg∙mL^−1, 48 h) [%] | Inhibition percentage against C. albicans ATCC 10231 ([5]; 31. μg∙mL^−1, 48 h) [%] | MIC50 (minimum concentration to inhibit 50% of fungal growth), C. albicans [5] [µg/mL] | Inhibition percentage against C. neoformans ATCC 32264 ([6]; 3.9 μg∙mL^−1, 48 h) [%] | Inhibition percentage against C. neoformans ATCC 32264 ([6]; 7.8 μg∙mL^−1, 48 h) [%] | Inhibition percentage against C. neoformans ATCC 32264 ([6]; 15.6 μg∙mL^−1, 48 h) [%] | Inhibition percentage against C. neoformans ATCC 32264 ([6]; 31.2 μg∙mL^−1, 48 h) [%] | Inhibition percentage against C. neoformans ATCC 32264 ([6]; 62.5 μg∙mL^−1, 48 h) [%] | Inhibition percentage against C. neoformans ATCC 32264 ([6]; 125 μg∙mL^−1, 48 h) [%] | Inhibition percentage against C. neoformans ATCC 32264 ([6]; 250 μg∙mL^−1, 48 h) [%] | MIC50 (minimum concentration to inhibit 50% of fungal growth), C. neoformans [6] [µg/mL]
CC(C)c1cc2c3c(c1OC(=O)CCc1cn(Cc4ccc(Br)cc4)nn1)OC(=O)[C@@]31CCCC(C)(C)[C@@H]1CC2 [Compound 5, 12-O-(3-(1-(4-bromobenzyl)-1H-1,2,3-triazol-4-yl)-propanoyloxy)-11,20-epoxyabieta-8,11,13-trien-20-one] | > 100 | 82.6 ± 6.6 | > 100 | > 100 | 0.0 | 0.0 | 0.0 | 4.1 ± 1.7 | 8.3 ± 3.3 | 16.5 ± 1.3 | 3.0 ± 2.7 | >250 | 2.3 ± 0.9 | 6.0 ± 0.7 | 7.7 ± 0.6 | 8.7 ± 1.4 | 12.0 ± 1.0 | 12.6 ± 0.5 | 36.9 ± 2.2 | >250
CC(C)c1cc2c3c(c1OC(=O)CCCc1cn(Cc4ccc(Br)cc4)nn1)OC(=O)[C@@]31CCCC(C)(C)[C@@H]1CC2 [Compound 6, 12-O-(4-(1-(4-bromobenzyl)-1H-1,2,3-triazol-4-yl)-butanoyloxy)-11,20-epoxyabieta-8,11,13-trien-20-one] | > 100 | > 100 | > 100 | > 100 | 0.0 | 1.4 ± 0.4 | 1.5 ± 0.1 | 13.2 ± 1.4 | 19.9 ± 0.5 | 45.4 ± 3.4 | 4.2 ± 0.9 | >250 | 0.0 | 0.0 | 0.0 | 5.4 ± 0.7 | 12.7 ± 0.8 | 22.4 ± 1.5 | 41.4 ± 2.7 | >250
CC(C)c1cc2c3c(c1OC(=O)CCc1cn(Cc4ccc([N+](=O)[O-])cc4)nn1)OC(=O)C31CCCC(C)(C)C1CC2 (centres unmarked) [Compound 7, 12-O-(3-(1-(4-nitrobenzyl)-1H-1,2,3-triazol-4-yl)-propanoyloxy)-11,20-epoxyabieta-8,11,13-trien-20-one] | > 100 | 60.6 ± 3.6 | > 100 | 64.3 ± 4.5 | 0.0 | 0.9 ± 0.2 | 2.1 ± 0.1 | 2.5 ± 0.5 | 10.5 ± 3.0 | 15.5 ± 1.1 | 2.2 ± 0.7 | >250 | 0.0 | 0.0 | 0.0 | 0.0 | 0.0 | 20.0 ± 1.1 | 28.2 ± 2.7 | >250
CC(C)c1cc2c3c(c1OC(=O)CCCc1cn(Cc4ccc([N+](=O)[O-])cc4)nn1)OC(=O)C31CCCC(C)(C)C1CC2 (centres unmarked) [Compound 8, 12-O-(4-(1-(4-nitrobenzyl)-1H-1,2,3-triazol-4-yl)-butanoyloxy)-11,20-epoxyabieta-8,11,13-trien-20-one] | > 100 | > 100 | > 100 | > 100 | 0.0 | 0.0 | 0.0 | 5.6 ± 1.7 | 14.0 ± 1.9 | 27.5 ± 2.0 | 2.5 ± 1.3 | >250 | 0.0 | 0.0 | 0.3 ± 0.1 | 0.8 ± 0.1 | 8.2 ± 2.8 | 9.5 ± 2.9 | 10.4 ± 2.8 | >250

Reference: paper PMC6272684, “Synthesis, Antiproliferative and Antifungal Activities of 1,2,3-Triazole-Substituted Carnosic Acid and Carnosol Derivatives” (Molecules, 2015)
